Experimental data: patent US6977251B2, “5-androstene-3β, 17α diol as an inhibitor of tumor growth” (priority 1997, dated 2005)
Like-named read-outs stand apart in the source and are kept apart here.

Columns and labels:
[1] = system: ZR-75-1 cells; conditions: trypan blue exclusion
Procedure: (§1) Cells were first seeded at initial density of 1×10^5 cells per ml in quadruplicates in 24 multi-well flat bottom plates (Costar). Cells were then allowed to adhere and grow in phenol red-free […] media supplemented with 10% heat-inactivated fetal calf serum (FCS), 200 μM L-glutamine, 10 mM HEPES, 2.5 U/ml penicillin and 2.5 μg/ml streptomycin in 5% CO2 at 37° C. After 48 hours, four wells were sacrificed and counted to determine plating efficiency. In the remaining wells, medium was removed by aspiration and cells in each well were exposed to the media containing the specified steroid. The controls containing only medium or medium with vehicle were also prepared. In all samples, medium was changed every 48 hours. At the pre-established time-point. Cells were removed by trypsinization and washed. Cell number and viability were determined by trypan blue exclusion using a hemocytometer. Parallel cultures were also run to determine cell proliferation.

[2] = system: ZR-75-1 cells; test: cells; conditions: for cell proliferation (3H-thymidine): six day period
Procedure: The ZR-75-1 cell line (passage 89) was obtained from the American Type Culture Collection (Rockville, Md.). The cells were cultured in RPMI-1640 medium containing 10% heat-inactivated fetal calf serum, 200 μM L-glutamine, […] HEPES, 1.5 U/ml penicillin, and 1.5 μg/ml streptomycin in 5% CO2 at 37° C. The cells were passaged twice weekly.
as §1
(§2) For cell proliferation assays, cell suspensions were prepared by trypsinization of cells from cultures prepared in accord with methods described above. Cell viability was determined by trypan blue exclusion. The cells were then seeded in flat-bottom 96-well microtiter plates at a density of 2×10^3 cells/well and were allowed to rest for 48 hours in order to adhere. Non-adherent dead cells were removed by aspiration. Cells were then grown in media without phenol red. Some of the media contained supplements as indicated above. […] The cells were then grown for six days. Media was changed on the samples every 48 hours. On day 6, cells were pulsed with 1 μCi[…]-thymidine for the last 6 hours of incubation before harvesting onto glass filter using a HPD cell harvester (Cambridge Technology, Watertown, Mass.) and counted on a KLB scintillation counter.
ZR-75-1 cells (2×10^3) were treated as described above over a six day period with differing concentrations of αAED or with vehicle-only cultures. The medium was changed every 48 hours. Cells were pulsed with ^3H-thymidine for the last six hours of incubation.

[3] = system: P388D1 cells; conditions: RU486 at 0.5 μM and 1.0 μM
Procedure: as §2

[4] = system: RAW 264.7
Procedure: as §2
Effects of αAED at doses of 50 ηM and 100 ηM doses on murine macrophage myeloma cells (RAW 264.7, obtained from the American Type Culture Collection) was studied.

With `C[C@]12CC[C@H]3[C@@H](CC=C4C[C@@H](O)CC[C@@]43C)[C@@H]1CC[C@H]2O` [αAED, 5-androstene 3β,17α diol] the “cytotoxicity (cell count and viability)” value [1] was “not toxic to the cells”, the “cell proliferation in combination with RU486” value ([2]; 0.1 μl concentrations of αAED with 0.5 μM RU486) was “synergistic action to decrease proliferation of cells” and the “cell proliferation (3H-thymidine)” value ([2]; 6.25 ηM) was “increasing proliferation”. For the same compound, the “cell proliferation (3H-thymidine)” value ([2]; 12.5 ηM) was “decreasing cell proliferation”, the “cell proliferation (3H-thymidine)” value ([2]; 50 ηM) was “marked decrease” and the IC50 ([2]; Homo sapiens, ZR-75-1, read-out: half-maximal dose of anti-proliferative effect) was 50 nM. The “maximal dose of anti-proliferative effect” value ([2]; ZR-75-1 cells, dose and time-dependent) was 100 ηM, the “cell proliferation in the presence of estradiol” value ([2]; higher doses of αAED, 1 ηM estradiol, 6 day period) was “suppressed proliferation even in the presence of estradiol” and the “concentration at which growth of ZR-75-1 cells was significantly inhibited” value ([2]; tritiated thymidine incorporation, in vitro) was ≥ 12.5 ηM. For the same compound, the “cell proliferation in the presence of βAED” value ([2]; varied αAED, βAED constant at 2.5 ηM, six days) was “decreased proliferation at all concentrations”, the “cell proliferation in combination with RU486” value ([2]; αAED with RU486 at 1 μM) was “synergism was shown to be even greater” and the “effect on growth of P388D1 cells in combination with RU486” value [3] was “increased effectiveness over use of one agent”. For the same compound, the “proliferation of RAW 264.7 cells” value ([4]; 50 ηM) was “significant inhibition of proliferation” and the “proliferation of RAW 264.7 cells” value ([4]; 100 ηM) was “significant inhibition of proliferation”.
In the case of `C[C@]12CC[C@H]3[C@@H](CC=C4C[C@@H](O)CC[C@@]43C)[C@@H]1CC[C@@H]2O` [βAED, 5-androstene 3β,17β diol, reference compound], the “antiproliferative effect on growth of ZR-75-1 cells” value ([2]; alone at 100 ηM) is reported as “did not have any antiproliferative effect”.
